According to US20070060512A1, “Dipeptidyl-peptidase protected protein” (priority 2003, published 2007):
Where no end group is shown, it is not given here.

Key:
[1] = compared to GLP-1; cited from earlier work
[2] = second N-terminal alanine replaced with serine; cited from earlier work
recombinant human DPP-IV = target: T1, recombinant human DPP-IV (Homo sapiens, UniProt P27487); assay: Dipeptidylpeptidase-IV treatment of mTf fusion proteins, cyclic AMP stimulation assay in CHO-GLP1R cells; assay type: in vitro ADME; conditions: 2 μM fusion protein, DPP-IV 1 μg/μL, room temperature 2 hours; cAMP in CHO-GLP1R cells
T1 construct: purchased R&D Systems
T1 sequence (P27487 whole entry, the tested form may be a part): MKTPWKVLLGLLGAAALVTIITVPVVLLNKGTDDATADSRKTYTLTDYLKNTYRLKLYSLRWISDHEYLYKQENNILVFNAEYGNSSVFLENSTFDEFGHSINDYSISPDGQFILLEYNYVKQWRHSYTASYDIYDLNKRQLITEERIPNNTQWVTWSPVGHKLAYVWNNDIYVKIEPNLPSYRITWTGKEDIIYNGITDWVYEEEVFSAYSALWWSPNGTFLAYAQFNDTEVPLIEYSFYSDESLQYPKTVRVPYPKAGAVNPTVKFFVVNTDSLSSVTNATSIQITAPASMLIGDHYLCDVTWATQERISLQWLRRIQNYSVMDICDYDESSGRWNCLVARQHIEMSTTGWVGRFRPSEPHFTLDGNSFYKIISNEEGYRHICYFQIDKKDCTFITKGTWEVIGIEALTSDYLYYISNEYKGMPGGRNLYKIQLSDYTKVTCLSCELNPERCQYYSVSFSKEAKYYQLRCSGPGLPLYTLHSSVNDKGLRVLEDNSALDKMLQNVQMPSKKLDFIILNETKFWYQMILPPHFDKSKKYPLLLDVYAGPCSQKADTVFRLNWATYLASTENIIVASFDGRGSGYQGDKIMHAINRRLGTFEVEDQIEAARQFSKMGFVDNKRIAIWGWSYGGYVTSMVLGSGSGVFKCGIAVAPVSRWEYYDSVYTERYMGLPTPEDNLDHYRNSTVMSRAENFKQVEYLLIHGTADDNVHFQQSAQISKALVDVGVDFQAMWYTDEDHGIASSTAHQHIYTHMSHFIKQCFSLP
Description: Control reactions excluding DPP-IV were set-up in parallel for each fusion protein. The digests were incubated at room temperature for 2 hours, at which time the reactions were diluted 20-fold in Krebs-Ringer buffer (Biosource International) supplemented with 1 mM IBMX (Calbiochem).
Tissue culture plates (24-well) were seeded with CHO-GLP1R cells at a density of 1×10^5 cells per/well in RPMI/10% FBS medium one day prior to treatment. The next day the cells appeared uniformly distributed with an approximate confluency of 60-80 percent. One day after seeding the culture plates the cells were washed twice with Krebs-Ringer buffer (KRB) followed by incubation in KRB for 1 hr at 37° C. to lower the intracellular levels of cAMP. This was followed by incubation for 10 minutes in KRB/IBMX to inhibit intracellular enzymes that break down cAMP. Dilutions of each test compound were prepared in KRB/IBMX and triplicate wells of CHO-GLP1R cells were treated with 0.15 ml of test compound per well for exactly 50 minutes at 37° C. The treatment was halted by washing the cultures two times with ice-cold phosphate-buffered saline. […]

Zucker rats [3] = assay: Glucose Tolerance Test in Zucker rats; assay type: in vivo, rat; conditions: fasted Zucker rats, subcutaneous injection 30 minutes before glucose 1.5 mg/g body weight; versus untreated animals
Description: In this Example, modified GLP-1/mTf of the present invention is used as a therapeutic agent to treat diabetes. Modified GLP-1/mTf is administered to Zucker rats, a standard animal model for type II diabetes. Zucker rats have abnormally high blood glucose levels. […] Zucker rats are fasted overnight and then treated with H-GLP-1 or H-GLP-1 fused to transferrin (H-GLP-1/mTf). Thirty minutes after subcutaneous injection of H-GLP-1 or H-GLP-1/mTf, the animals are subjected to a Glucose Tolerance Test (GTT). For this test, fasted animals are fed glucose solution (1.5 mg/g body weight), and the blood glucose is measured at appropriate time intervals.

Zucker rats [4] = assay: Fasting glucose of Zucker rats without glucose administration; assay type: in vivo, rat; conditions: versus untreated animals
Text: In a further experiment, modified H-GLP-1 or H-GLP-1/mTf is used to normalize the high fasting glucose of the Zucker rats without glucose administration.

Compound	plasma stability [1]	insulinotropic action [2]	resistance to DPP-IV (recombinant human DPP-IV)	normalization of blood glucose level in Glucose Tolerance Test (Zucker rats [3])	fasting blood glucose level (Zucker rats [4])
[Ser^8]GLP-1: GLP-1 analog in which the second N-terminal alanine is replaced with serine (Ritzel et al.) (HSEGTFTSDVSSYLEGQAAKEFIAWLVKGRG; Glucagon-like peptide 1(7-37); UniProt P01275 98-128, looked up, variant A8S)	increased plasma stability as compared to GLP-1	did not impair the insulinotropic action			
H-GLP-1/mTf: H-GLP-1(7-36) fused to modified transferrin (mTf), expressed in Saccharomyces from pREX0368 (HHAEGTFTSDVSSYLEGQAAKEFIAWLVKGR; also: fused to modified transferrin (mTf))			more resistant to DPP-IV than GLP-1/mTf	faster normalization of blood glucose level	significant drop
CC[C@H](C)[C@H](NC(=O)[C@H](Cc1ccccc1)NC(=O)[C@H](CCC(=O)O)NC(=O)[C@H](CCCCN)NC(=O)[C@H](C)NC(=O)[C@H](C)NC(=O)[C@H](CCC(N)=O)NC(=O)CNC(=O)[C@H](CCC(=O)O)NC(=O)[C@H](CC(C)C)NC(=O)[C@H](Cc1ccc(O)cc1)NC(=O)[C@H](CO)NC(=O)[C@H](CO)NC(=O)[C@@H](NC(=O)[C@H](CC(=O)O)NC(=O)[C@H](CO)NC(=O)[C@@H](NC(=O)[C@H](Cc1ccccc1)NC(=O)[C@@H](NC(=O)CNC(=O)[C@H](CCC(=O)O)NC(=O)[C@H](C)NC(=O)[C@H](Cc1c[nH]cn1)NC(=O)[C@@H](N)Cc1c[nH]cn1)[C@@H](C)O)[C@@H](C)O)C(C)C)C(=O)N[C@@H](C)C(=O)N[C@@H](Cc1c[nH]c2ccccc12)C(=O)N[C@@H](CC(C)C)C(=O)N[C@H](C(=O)N[C@@H](CCCCN)C(=O)NCC(=O)N[C@@H](CCCNC(=N)N)C(=O)O)C(C)C [H-GLP-1]				faster normalization of blood glucose level	significant drop
